According to patent publication US12428396B2, “Fused pyridine ring derivative, preparation method therefor, and pharmaceutical use thereof” (priority 2019, dated 2025):
Like-named read-outs stand apart in the source and are kept apart here.

Columns and labels:
[1] = Thermodynamic stability test of atropisomerism (LC-MS); type: physicochemical
Experimental: Agilent 1200 DAD model LC-MS; column: waters sunfire C18, 4.6×75 mm, 3.5 μm; mobile phase: water (0.1% trifluoroacetic acid):acetonitrile (0.1% trifluoroacetic acid).
The compounds of Examples 1-1a, 1-1b were atropisomers of each other and had different retention times in the LC-MS spectra, and the tautomerism of the atropisomers could be detected by LC-MS.
Compound 1-1a (1.5 mg) was dissolved in acetonitrile (1.0 mL), and the reaction solution was heated at 40° C. for 1.0 h, and the change in purity of compound 1-1a was detected by LC-MS. Compound 1-1a (1.5 mg) was dissolved in dimethyl sulfoxide (1.0 mL), and the reaction solution was heated at 120° C. for 3.0 h, and the change in purity of compound 1-1a was detected by LC-MS.
The same procedure was used to test the change in purity of compound 1-1b at 40° C. and 120° C.
The compounds of Examples 5-1, 5-2 were atropisomers of each other and had different retention times in the LC-MS spectra, and the tautomerism of the atropisomers could be detected by LC-MS.
Compound 5-1 (1.0 mg) was dissolved in DMSO (1.0 mL), and the reaction solution was heated at 37° C. and 120° C. for 3.0 h, respectively, and the change in purity of compound 5-1 was detected by LC-MS.

[2] = Beagle pharmacokinetic study (ig/sc/iv, plasma LC/MS/MS); type: in vivo, beagles; conditions: for AUC(0-t) / half-life / Cmax: dog, plasma; for AUC(0-t): read-out: Area under curve AUC0-72; for half-life: read-out: Half life T½ (converted); for Cmax: read-out: Plasma concentration Cmax
Experimental: Taking beagles as test animals, and the drug concentrations in dog plasma at various times after intragastric administration (ig)/subcutaneous injection (sc)/intravenous injection (iv) administration of the compound of Example 1-1 and Positive Control Example 1 were measured by using LC/MS/MS method. The pharmacokinetic performance in beagles of the compounds of the present disclosure was studied and the pharmacokinetic profile thereof was evaluated.
18 non-naïve beagles (999M-004, medicilon) with 7-12 kg, every 3 of which were in one group.
The intragastric administration group: a certain amount of the compounds was weighed, ethanol with a volume of 5% of the final volume, 20% PG, 45% PEG300 and 30% deionized water were added (the pH was adjusted to be about 2 with 0.01 N HCl), and the reaction mixture was subjected to ultrasonic stirring for uniform mixing to give an administration solution at a concentration of 0.8 mg/mL.
The subcutaneous injection administration group: a certain amount of the compounds was weighed, 2% aqueous poloxamer 188 solution with a proper volume was added, and the reaction mixture was subjected to ultrasonic stirring for uniform mixing to give a suspension administration solution at a concentration of 200 mg/mL.
The intravenous administration group: a certain amount of the compounds was weighed, 5% volume of DMSO, 30% PG, 30% PEG400 and 35% volume of normal saline were added, and the reaction mixture was subjected to vortex ultrasonic stirring for uniform mixing to give an administration solution at a concentration of 0.5 mg/mL.
Beagles were intragastrically administered with the compounds after fasting overnight, at a dose of 4.0 mg/kg and a volume of 5.0 mL/kg.
Beagles were subcutaneously injected with the compounds after fasting overnight, at a dose of 6.0 mg/kg and a volume of 0.03 mL/kg.
Beagles were intravenously injected with the compounds after fasting overnight, at a dose of 1.0 mg/kg and a volume of 2 mL/kg.
Beagles were intragastrically administered with the compound of Example 1-1/Positive Control Example 1, and 1 mL of blood was collected from the orbit before administration and at 0.25 h, 0.5 h, 1.0 h, 2.0 h, 4.0 h, 6.0 h, 8.0 h, 12.0 h, 24 h, 32 h, 48 h, 56 h and 72 h after administration, respectively, and placed in EDTA-K2 anticoagulant blood collection tubes, plasma was centrifuged (centrifugal force: 2200 g, centrifugation time: 10 min, 2-8° C.), and stored at −80° C., and food intake was resumed 3 h after administration.
The compound of Example 1-1/Positive Control Example 1 was subcutaneously injected to beagles, and 1 mL of blood was collected before administration and at 1.0 h, 3.0 h, 8.0 h, 24 h, 48 h, 72 h, 96 h, 168 h, 336 h, 432 h and 504 h after administration, respectively, and placed in EDTA-K2 anticoagulant blood collection tubes, plasma was centrifuged (centrifugal force: 2200 g, centrifugation time: 10 min, 2-8° C.), and stored at −80° C., and food intake was resumed 3 h after administration.
The content of the compound to be tested in the plasma of beagles was determined after the intragastric administration of the compounds at different concentrations: 20 μL of the plasma in beagles at each time after administration was taken, 200 μL of methanol containing internal standard (100 ng/mL) was added, the reaction mixture was subjected to vortex mixing for 1 min, and centrifuged for 7 min (centrifugal force: 18000 g), and 1 μL of the supernatant was taken from the plasma sample for LC/MS/MS analysis. […]

[3] = Monkey pharmacokinetic study (iv, plasma LC/MS/MS); type: in vivo, cynomolgus monkeys; conditions: cynomolgus monkey, intravenous injection, 1 mg/kg
Experimental: Taking cynomolgus monkeys as test animals and the drug concentrations in monkey plasma at various times after intravenous injection (iv) of the compounds of Example 1-1 and Positive Control Example 1 were measured by using LC/MS/MS method. The pharmacokinetic performance in cynomolgus monkeys of the compounds of the present disclosure was studied and the pharmacokinetic profile thereof was evaluated.
6 non-naïve cynomolgus monkeys (999M-004, medicilon) with 2-5 kg, every 3 of which were in one group.
A certain amount of the compounds was weighed, 5% volume of DMSO, 30% PG, 30% PEG400 and 35% volume of normal saline were added, and the reaction mixture was subjected to vortex ultrasonic stirring for uniform mixing to give a clean administration solution at a concentration of 0.5 mg/mL.
Monkeys were intravenously injected with the compounds after fasting overnight, at a dose of 1.0 mg/kg and a volume of 2 mL/kg.
The compound of Example 1-1/Positive Control Example 1 was intravenously injected to monkeys, and 1 mL of blood was collected through femoral vein before administration and at 5 min, 0.25 h, 0.5 h, 1.0 h, 2.0 h, 4.0 h, 8.0 h, 12.0 h, 24 h, 32 h, 48 h, 56 h and 72 h after administration, respectively, and placed in EDTA-K2 anticoagulant blood collection tubes, plasma was centrifuged (centrifugal force: 2200 g, centrifugal time: 10 min, 2-8° C.), and stored at −80° C., and food intake was resumed 3 h after administration.

[4] = po, intragastric administration, 4 mg/kg
[5] = sc, subcutaneous injection, 6 mg/kg

Question: What does the source list for `CC(C)(C#Cc1nc([C@H](Cc2cc(F)cc(F)c2)NC(=O)Cn2nc(C(F)(F)F)c3c2C(F)(F)[C@@H]2C[C@H]32)c(-c2ccc(Cl)c3c(NS(C)(=O)=O)nn(CC(F)(F)F)c23)c2c1CCC2)S(C)(=O)=O` (atropisomer, axis not shown; (aR)) [Example 1-1, N—((S)-1-((R)-4-(4-chloro-3-(methanesulfonamide)-1-(2,2,2-trifluoroethyl)-1H-indazol-7-yl)-1-(3-methyl-3-(methylsulfonyl)but-1-yn-1-yl)-6,7-dihydro-5H-cyclopenta[c]pyridin-3-yl)-2-(3,5-difluorophenyl)ethyl)-2-((3bS,4aR)-5,5-difluoro-3-(trifluoromethyl)-3b,4,4a,5-tetrahydro-1H-cyclopropa[3,4]cyclopenta[1,2-c]pyrazol-1-yl)acetamide]?
Answer: atropisomer stability (change in purity by LC-MS) ([1]; heated at 40° C. for 1.0 h in acetonitrile): stable single-configuration compounds; atropisomer stability (change in purity by LC-MS) ([1]; heated at 120° C. for 3.0 h in dimethyl sulfoxide): stable single-configuration compounds; AUC(0-t) ([2]; intravenous injection, 1 mg/kg): 16500 ng·h/mL; half-life ([2]; intravenous injection, 1 mg/kg): 41.8 h; Cmax ([2]; intravenous injection, 1 mg/kg): 1320 ng/mL; AUC(0-t) [2, 4]: 8230 ng·h/mL; half-life [2, 4]: 44.3 h; Cmax [2, 4]: 251 ng/mL; AUC(0-t) [2, 5]: 34800 ng·h/mL; Cmax [2, 5]: 122 ng/mL; Clearance CLz/F ([2]; intravenous injection, 1 mg/kg): 0.7 mL/min/kg; Clearance CLz/F [3]: 2.0 mL/min/kg; AUC(0-t) ([3]; plasma, read-out: Area under curve AUC0-72): 8520 ng·h/mL
